Source: patent publication US20240228482A1, “COMPOUNDS, COMPOSITIONS AND METHODS OF TREATING CANCER” (HOTSPOT THERAPEUTICS, INC., priority 2021, published 2024)

target: T1, CBL-B (Homo sapiens, UniProt Q13191); experiment: CBL-B TR-FRET IC50 screening (E1/E2 ubiquitination, Biotin-Ubiquitin, Anti GST-Tb donor / Streptavidin-d2 acceptor); assay type: biochemical; settings: CBL-B 10 nM final; 11-point titration from 100 uM; binned A-F; read-out: CBL-B TR-FRET activity IC50
T1 construct: GST
T1 sequence (Q13191 whole entry): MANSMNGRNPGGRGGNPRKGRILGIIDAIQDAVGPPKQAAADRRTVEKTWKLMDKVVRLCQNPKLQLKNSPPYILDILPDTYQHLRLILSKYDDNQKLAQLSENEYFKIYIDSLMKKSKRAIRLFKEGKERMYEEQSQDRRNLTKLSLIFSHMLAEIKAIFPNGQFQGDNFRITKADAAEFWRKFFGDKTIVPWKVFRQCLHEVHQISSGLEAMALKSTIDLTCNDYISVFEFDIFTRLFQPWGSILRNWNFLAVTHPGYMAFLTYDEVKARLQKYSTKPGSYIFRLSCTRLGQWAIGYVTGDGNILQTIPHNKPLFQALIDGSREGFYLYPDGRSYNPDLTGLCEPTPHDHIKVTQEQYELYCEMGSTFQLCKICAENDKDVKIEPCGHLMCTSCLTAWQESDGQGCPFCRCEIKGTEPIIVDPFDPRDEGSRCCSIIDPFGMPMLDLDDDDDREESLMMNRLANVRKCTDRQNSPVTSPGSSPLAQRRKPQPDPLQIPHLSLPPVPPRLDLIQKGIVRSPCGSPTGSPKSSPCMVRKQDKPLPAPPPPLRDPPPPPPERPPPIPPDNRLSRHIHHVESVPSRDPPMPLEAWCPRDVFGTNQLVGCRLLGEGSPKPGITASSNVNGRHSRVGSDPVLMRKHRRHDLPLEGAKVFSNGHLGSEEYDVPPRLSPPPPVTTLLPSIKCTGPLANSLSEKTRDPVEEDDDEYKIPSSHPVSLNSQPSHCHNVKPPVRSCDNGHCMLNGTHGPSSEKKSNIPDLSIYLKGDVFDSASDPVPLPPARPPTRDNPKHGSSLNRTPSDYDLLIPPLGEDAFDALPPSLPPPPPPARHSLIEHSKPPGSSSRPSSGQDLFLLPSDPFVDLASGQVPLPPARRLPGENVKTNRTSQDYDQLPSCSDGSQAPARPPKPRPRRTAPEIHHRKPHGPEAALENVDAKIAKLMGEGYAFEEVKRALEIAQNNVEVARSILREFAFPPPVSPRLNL

SMILES	IC50 [nM]
C[C@@H]1CN(Cc2cc(C(F)(F)F)c3cn(-c4cccc([C@H](c5nncs5)C5CCC5)c4)c(=O)n3c2)CCO1 [Compound 291]	> 10000
Cn1cnnc1[C@]1(c2cccc(-n3cc4c(C(F)(F)F)cc(CN5CC6(CC6)C5)cn4c3=O)c2)C[C@@H](C)C1 [Compound 228]	< 100
CC1CN(Cc2cc(C(F)(F)F)c3cn(-c4cccc([C@]5(Cc6nncn6C)C[C@@H](C#N)C5)c4)c(=O)n3c2)CCC1(F)F (single isomer, unassigned) [Compound 99]	< 100
C[C@@H](c1cc(C(F)(F)F)c2cn(-c3cccc(C4(Cc5nncn5C)COC4)c3)c(=O)n2c1)N1CCC(F)CC1 [Compound 33]	< 100
Cn1cnnc1CC1(c2cccc(-n3cc4c(C(F)(F)F)cc(CN5CC(O)C5)cn4c3=O)c2)COC1 [Compound 61]	100 to 300
Cn1cnnc1CC1(c2cccc(-n3cc4c(C(F)(F)F)cc(C5(O)CCNCC5)cn4c3=O)c2)COC1 [Compound 179]	100 to 300
C[C@H]1CCCN(Cc2cc(C(F)(F)F)c3cn(-c4cccc(Cc5nncn5C)c4)c(=O)n3c2)C1 [Compound 294]	1000 to 3000
Cn1cnnc1CC1(c2cccc(-n3cc4c(C(F)(F)F)cc(CN5CCC(C)(F)CC5)cn4c3=O)c2)COC1 [Compound 11]	< 100

The next lines start with the values.

IC50 [nM]	SMILES
< 100	Cn1cnnc1[C@@H](F)C1(c2cccc(-n3cc4c(C(F)(F)F)cc(CN5CCC(F)CC5)cn4c3=O)c2)COC1 [Compound 44]
301 to 1000	C[C@H]1CCCN(Cc2cc(C(F)(F)F)c3cn(-c4cccc([C@H](c5nncn5C)[C@H]5C[C@H](CO)C5)c4)c(=O)n3c2)C1 (single isomer, unassigned) [Compound 354]
301 to 1000	Cn1cnnc1[C@@H](c1cccc(-n2cc3c(C(F)(F)F)cc(CN4CC[C@H](C(F)(F)F)C4)cn3c2=O)c1)C1CCC1 [Compound 284]
< 100	CC(=O)N1CCN(Cc2cc(C(F)(F)F)c3cn(-c4cccc([C@@H](c5nncn5C)C5CCC5)c4)c(=O)n3c2)CC1 [Compound 339_P1]

same assay, conditions: second part of Table 2 (head 'Patent Cmpd No / Updated Activity'); same CBL-B TR-FRET IC50 bins A-F; read-out: Updated Activity

SMILES	IC50 [nM]
C[C@H]1CCCN(Cc2cc(C(F)(F)F)c3cn(-c4cc(F)cc([C@H](c5nncn5C)C5COC5)c4)c(=O)n3c2)C1 (single isomer, unassigned) [Compound 476]	301 to 1000
C[C@H]1CCCN(Cc2cc(C(F)(F)F)c3cn(-c4cc(C#N)cc([C@@H](c5nncn5C)C5COC5)c4)c(=O)n3c2)C1 (single isomer, unassigned) [Compound 556]	< 100
C[C@@H](c1cc(C(F)(F)F)c2cn(-c3cccc([C@H](c4nncn4C)C4CCC4)c3)c(=O)n2c1)N(C)Cc1cncs1 [Compound 610_P2]	< 100
C[C@H]1CCCN(Cc2cc(C(F)(F)F)c3cn(-c4csc([C@@H](c5nncn5C)C5CCC5)c4)c(=O)n3c2)C1 [Compound 550_P1]	< 100
CO[C@]1(C)C[C@@](c2cccc(-n3cc4c(C(F)(F)F)cc(CN5CCC[C@H](C)C5)cn4c3=O)c2)(c2nncn2C)C1 (single isomer, unassigned) [Compound 440]	> 10000
Cn1cnnc1CC1(c2cccc(-n3cc4c(C(F)(F)F)cc(CN5CCC(OCCN)CC5)cn4c3=O)c2)COC1 [Compound 499]	< 100

Next, values leading:

IC50 [nM]	SMILES
< 100	Cn1cnnc1[C@H](c1cc(F)cc(-n2cc3c(C(F)(F)F)cc(CN4CCC5(CC5)C4)cn3c2=O)c1)C1CCC1 (single isomer, unassigned) [Compound 514]
< 100	CN(CC(=O)O)Cc1cc(C(F)(F)F)c2cn(-c3cccc([C@H](c4nncn4C)C4CCC4)c3)c(=O)n2c1 [Compound 522]
< 100	Cn1cnnc1[C@@H](c1cccc(-n2cc3c(C(F)(F)F)cc(CN4CCCCS4(=O)=O)cn3c2=O)c1)C1CCC1 [Compound 543]
< 100	C[C@@H]1C[C@H](O)CN(Cc2cc(C(F)(F)F)c3cn(-c4cccc([C@H](c5nncn5C)C5CCC5)c4)c(=O)n3c2)C1 (single isomer, unassigned) [Compound 589]
< 100	CN(CCC(=O)O)Cc1cc(C(F)(F)F)c2cn(-c3cccc([C@H](c4nncn4C)C4CCC4)c3)c(=O)n2c1 [Compound 595]
